± gives the standard deviation of the averaged measurements.
Legend:
Test in all cases: level (log10 ratio to DMSO vehicle control); higher = higher biomarker level / cell amount than vehicle control
Conditions in all cases: in DMSO
[1] = compound: C=C(C)C(=O)OCC(F)(F)C(F)(F)C(F)(F)C(F)(F)C(F)(F)C(F)(F)C(F)(F)F
Method: (§1)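 BioMAP Diversity Plus panel of 12 human primary cell co-culture systems (3C, 4H, LPS, SAg, BT, BF4T, BE3C, CASM3C, HDF3CGF, KF3CT, MyoF, Mphg). Compounds were added 1 h before stimulation and left for 24 h (MyoF 48 h; BT 72 h for soluble read-outs or 6 d for IgG). Biomarkers were read by ELISA, cytotoxicity by SRB, PBMC viability and proliferation by Alamar Blue. Each well value was divided by the mean of 8 DMSO control wells on the same plate and log10 transformed; duplicate blinded samples were tested at 4 concentrations.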

[2] = compound: FC(F)(F)C(F)(F)C(F)(F)C(F)(F)C(F)(F)C(F)(F)C(F)(F)CCI [1-Iodo-1H,1H,2H,2H-perfluorononane]
Method: as §1

[3] = compound: O=C(O)C(F)(F)C(F)(F)C(F)(F)C(F)(F)C(F)(F)C(F)(F)C(F)(F)C(F)(F)Cl [9-Chloro-perfluorononanoic acid]
Method: as §1

[4] = compound: O=C(O)C(F)(F)C(F)(F)C(F)(F)C(F)(F)C(F)(F)F [Perfluorohexanoic acid]
Method: as §1

[5] = compound: O=P(O)(O)CCC(F)(F)C(F)(F)C(F)(F)C(F)(F)C(F)(F)C(F)(F)C(F)(F)C(F)(F)F [((Perfluorooctyl)ethyl)phosphonic acid]
Method: as §1

[6] = compound: O=S(=O)(O)C(F)(F)C(F)(F)C(F)(F)C(F)(F)C(F)(F)C(F)(F)C(F)(F)C(F)(F)F [Perfluorooctanesulfonic acid]
Method: as §1

[7] = compound: OCC(F)(F)C(F)(F)C(F)(F)F [1H,1H-Heptafluorobutanol]
Method: as §1

Test System | level (log10) ([1]; 6700 nM) | level (log10) ([1]; 20000 nM) | level (log10) ([2]; 6700 nM) | level (log10) ([2]; 20000 nM) | level (log10) ([3]; 6700 nM) | level (log10) ([3]; 20000 nM) | level (log10) ([4]; 6700 nM) | level (log10) ([4]; 20000 nM) | level (log10) ([4]; 60000 nM) | level (log10) ([5]; 6700 nM) | level (log10) ([5]; 20000 nM) | level (log10) ([5]; 60000 nM) | level (log10) ([6]; 6700 nM) | level (log10) ([6]; 20000 nM) | level (log10) ([6]; 60000 nM) | level (log10) ([7]; 6700 nM) | level (log10) ([7]; 20000 nM) | level (log10) ([7]; 60000 nM)
LPS:CD69 | -0.0065 ± 0.069 | 0.0095 ± 0.067 | -0.0145 ± 0.026 | -0.0065 ± 0.063 | -0.0335 ± 0.026 | -0.063 ± 0.028 | 0.0025 ± 0.0078 | -0.0165 ± 0.0021 | -0.0295 ± 0.013 | -0.04 ± 0.0042 | -0.032 ± 0.018 | -0.0305 ± 0.023 | -0.018 ± 0.0057 | -0.0385 ± 0.0021 | -0.025 ± 0.014 | -0.016 ± 0.021 | -0.0245 ± 0.021 | -0.0075 ± 0.0035
LPS:CD106/VCAM-1 | -0.021 ± 0.05 | -0.0085 ± 0.046 | 0.002 ± 0.011 | -0.0155 ± 0.039 | -0.008 ± 0.045 | 0.003 ± 0.037 | -0.0025 ± 0.0035 | -0.0055 ± 0.0035 | 0.008 ± 0.0042 | -0.011 ± 0.017 | -0.0125 ± 0.0021 | -0.05 ± 0.0028 | -0.009 ± 0.0085 | -0.017 ± 0.011 | -0.023 ± 0.027 | -0.0165 ± 0.0078 | 0.005 ± 0.0014 | 0.0035 ± 0.0021
LPS:CD141/Thrombomodulin | 0.0115 ± 0.019 | -0.015 ± 0.025 | -0.0265 ± 0.0021 | -0.024 ± 0.0057 | 0.0485 ± 0.033 | 0.064 ± 0.03 | 0.0085 ± 0.012 | 0.0065 ± 0.026 | 0.007 ± 0.017 | -0.02 ± 0.013 | -0.049 ± 0.0085 | 0.0065 ± 0.028 | -0.03 ± 0.0014 | -0.01 ± 0.0071 | -0.036 ± 0.031 | 0.01 ± 0.013 | 0.003 ± 0.016 | -0.008 ± 0.011
LPS:CD142/Tissue Factor | -0.0155 ± 0.032 | -0.0245 ± 0.087 | 0.046 ± 0.073 | -0.0215 ± 0.09 | 0.0165 ± 0.059 | 0.0375 ± 0.016 | 0.0205 ± 0.021 | 0.0045 ± 0.011 | 0.015 ± 0.0071 | -0.023 ± 0.0014 | -0.01 ± 0.0099 | 0.032 ± 0.033 | -0.0135 ± 0.00071 | -0.0265 ± 0.019 | -0.0105 ± 0.0092 | 0.012 ± 0.05 | 0.015 ± 0.034 | -0.0125 ± 0.0078
LPS:CXCL8/IL-8 | -0.0045 ± 0.0092 | 0.033 ± 0.011 | 0.005 ± 0.072 | -0.001 ± 0.082 | 0.019 ± 0.062 | 0.061 ± 0.048 | 0.0035 ± 0.016 | 0.011 ± 0.0028 | 0.0575 ± 0.0035 | -0.021 ± 0.021 | -0.0255 ± 0.011 | -0.04 ± 0.0057 | -0.0005 ± 0.011 | 0.015 ± 0.02 | 0.0235 ± 0.046 | 0.0085 ± 0.013 | -0.006 | -0.025 ± 0.0014
LPS:IL-1alpha | 0.016 ± 0.048 | 0.044 ± 0.016 | -0.008 ± 0.041 | 0.031 ± 0.016 | 0.038 ± 0.017 | 0.025 ± 0.021 | 0.0135 ± 0.0064 | 0.0145 ± 0.0092 | -0.003 ± 0.02 | -0.0215 ± 0.043 | -0.0045 ± 0.029 | -0.024 ± 0.13 | 0.0245 ± 0.043 | 0.023 ± 0.04 | 0.0215 ± 0.0021 | -0.028 ± 0.025 | -0.068 ± 0.0085 | 0.0095 ± 0.015
LPS:M-CSF | 0.005 ± 0.017 | 0.03 ± 0.017 | -0.003 ± 0.028 | -0.0015 ± 0.093 | -0.0125 ± 0.0078 | 0.0485 ± 0.047 | 0.002 ± 0.0099 | -0.0125 ± 0.015 | -0.0055 ± 0.025 | -0.0385 ± 0.018 | -0.052 ± 0.037 | -0.183 ± 0.072 | -0.022 ± 0.011 | 0 ± 0.031 | 0.008 ± 0.017 | 0.011 ± 0.0071 | -0.007 ± 0.055 | 0.006 ± 0.016
LPS:SRB | -0.0025 ± 0.0078 | -0.0045 ± 0.005 | 0.0125 ± 0.0064 | 0.019 ± 0.017 | 0.0015 ± 0.012 | -0.0035 ± 0.013 | -0.013 ± 0.0071 | -0.009 | -0.0065 ± 0.0078 | -0.01 ± 0.0042 | -0.0195 ± 0.011 | -0.08 ± 0.047 | -0.003 ± 0.0085 | -0.003 ± 0.0028 | 0 | -0.0085 ± 0.0035 | 0.005 ± 0.0014 | -0.003 ± 0.0028
LPS:sPGE2 | -0.0035 ± 0.05 | -0.031 ± 0.034 | -0.0095 ± 0.0021 | -0.03 ± 0.017 | 0.0175 ± 0.0092 | -0.0895 ± 0.0078 | 0.025 ± 0.052 | 0.013 ± 0.021 | -0.009 ± 0.041 | 0.0605 ± 0.0021 | 0.0675 ± 0.011 | 0.17 ± 0.023 | 0.01 ± 0.035 | -0.0315 ± 0.0092 | -0.075 ± 0.013 | 0.025 ± 0.04 | -0.0225 ± 0.052 | 0.009 ± 0.027
LPS:sTNF-alpha | 0.0045 ± 0.088 | 0.0175 ± 0.011 | 0.0075 ± 0.0035 | 0.0035 ± 0.0021 | -0.0115 ± 0.0078 | -0.004 ± 0.014 | -0.009 ± 0.0014 | -0.0005 ± 0.021 | -0.0515 ± 0.0021 | 0.0165 ± 0.088 | 0.008 ± 0.1 | -0.004 ± 0.18 | 0.0195 ± 0.079 | -0.043 ± 0.062 | -0.0545 ± 0.076 | 0.005 | 0.0015 ± 0.019 | -0.0155 ± 0.032
SAg:CCL2/MCP-1 | -0.0015 ± 0.0035 | 0.0175 ± 0.0092 | -0.0145 ± 0.0078 | -0.0025 ± 0.049 | 0.017 ± 0.021 | -0.0055 ± 0.005 | -0.01 ± 0.0057 | -0.0255 ± 0.0078 | 0.0135 ± 0.018 | 0.006 ± 0.0042 | 0.004 ± 0.016 | -0.0195 ± 0.053 | 0.003 | 0.004 ± 0.0042 | 0.0015 ± 0.0064 | 0.0075 ± 0.019 | 0.0065 ± 0.025 | 0.008 ± 0.05
SAg:CD38 | -0.0195 ± 0.00071 | 0.011 ± 0.0071 | 0.007 ± 0.03 | -0.007 ± 0.042 | -0.02 ± 0.021 | -0.0315 ± 0.028 | 0.003 ± 0.023 | -0.004 ± 0.0014 | -0.0005 ± 0.025 | -0.015 ± 0.024 | -0.0155 ± 0.005 | -0.0945 ± 0.023 | -0.01 ± 0.021 | -0.0075 ± 0.00071 | -0.037 ± 0.018 | -0.028 ± 0.064 | -0.0145 ± 0.015 | -0.0115 ± 0.088
SAg:CD40 | -0.0375 ± 0.00071 | -0.0425 ± 0.011 | -0.006 ± 0.021 | -0.0065 ± 0.0092 | -0.013 ± 0.033 | -0.024 ± 0.031 | 0.0065 ± 0.016 | -0.0145 ± 0.012 | -0.0095 ± 0.021 | -0.0305 ± 0.0078 | -0.0405 ± 0.018 | -0.136 ± 0.025 | -0.0165 ± 0.05 | -0.032 ± 0.038 | -0.054 ± 0.013 | -0.011 ± 0.018 | 0.0045 ± 0.0092 | 0.0175 ± 0.074
SAg:CD62E/E-Selectin | -0.001 ± 0.024 | 0.0155 ± 0.011 | 0 ± 0.014 | -0.0225 ± 0.053 | -0.017 ± 0.0042 | 0.017 ± 0.014 | 0.001 ± 0.018 | -0.01 ± 0.023 | 0.0195 ± 0.005 | 0.0135 ± 0.0021 | 0.0275 ± 0.019 | -0.0155 ± 0.03 | 0.012 ± 0.014 | 0.0205 ± 0.0021 | 0.04 ± 0.028 | 0.003 ± 0.013 | 0.01 ± 0.038 | 0.0125 ± 0.053
SAg:CD69 | -0.01 ± 0.05 | -0.001 ± 0.045 | -0.011 ± 0.017 | -0.0015 ± 0.018 | -0.0405 ± 0.043 | -0.035 ± 0.028 | -0.0065 ± 0.00071 | -0.0115 ± 0.021 | -0.0125 ± 0.0092 | -0.01 ± 0.017 | -0.016 ± 0.05 | -0.006 ± 0.052 | -0.013 ± 0.0014 | -0.0035 ± 0.018 | 0.0035 ± 0.016 | -0.013 ± 0.017 | -0.0035 ± 0.016 | 0.02 ± 0.016
SAg:CXCL8/IL-8 | -0.024 ± 0.031 | 0.0185 ± 0.0064 | -0.0055 ± 0.019 | 0.004 ± 0.045 | 0.0125 ± 0.0078 | 0.0445 ± 0.0092 | -0.049 ± 0.052 | -0.009 ± 0.038 | 0.0035 ± 0.084 | 0.022 ± 0.023 | 0.037 ± 0.03 | 0.052 ± 0.011 | -0.015 | 0.01 ± 0.0057 | 0.041 ± 0.0085 | 0.012 ± 0.0085 | -0.0055 ± 0.0021 | -0.0045 ± 0.1
